From patent US10081624B2, “Heterocyclic compound” (Takeda Pharmaceutical Company Limited, priority 2014, dated 2018)

Columns and labels:
[1] = biological target: T1, HDAC1 enzyme (Homo sapiens, UniProt Q13547); test: HDAC1 enzyme inhibitory assay (HDAC-Glo I/II Assay kit); assay type: biochemical; settings: 1 μM test compound; for inhibition at 1 µM: read-out: HDAC1 inhibitory rate (%) (1 μM)
T1 construct: prepared by transducing full length HDAC1 and HDAC6 genes into Sf-9 insect cells; GST; purchased SignalChem; host or cells: Sf-9 insect cells
Summary of the method: (§1)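 Luminescent HDAC-Glo I/II read-out after 20 min room-temperature reaction with substrate-developer, following a 60 min room-temperature enzyme–compound preincubation. Enzymes: full-length HDAC1 or HDAC6 from Sf-9 cells, GST-purified; buffer pH 7.5 Tris with NaCl, glutathione, 0.01% Tween-20. No-enzyme wells defined 100% inhibition.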

[2] = biological target: T2, HDAC6 enzyme (Homo sapiens, UniProt Q9UBN7); test: HDAC6 enzyme inhibitory assay (HDAC-Glo I/II Assay kit); assay type: biochemical; settings: 1 μM test compound; for inhibition at 1 µM: read-out: HDAC6 inhibitory rate (%) (1 μM)
T2 construct: prepared by transducing full length HDAC1 and HDAC6 genes into Sf-9 insect cells; GST; purchased SignalChem; host or cells: Sf-9 insect cells
T2 sequence (Q9UBN7 1-1215): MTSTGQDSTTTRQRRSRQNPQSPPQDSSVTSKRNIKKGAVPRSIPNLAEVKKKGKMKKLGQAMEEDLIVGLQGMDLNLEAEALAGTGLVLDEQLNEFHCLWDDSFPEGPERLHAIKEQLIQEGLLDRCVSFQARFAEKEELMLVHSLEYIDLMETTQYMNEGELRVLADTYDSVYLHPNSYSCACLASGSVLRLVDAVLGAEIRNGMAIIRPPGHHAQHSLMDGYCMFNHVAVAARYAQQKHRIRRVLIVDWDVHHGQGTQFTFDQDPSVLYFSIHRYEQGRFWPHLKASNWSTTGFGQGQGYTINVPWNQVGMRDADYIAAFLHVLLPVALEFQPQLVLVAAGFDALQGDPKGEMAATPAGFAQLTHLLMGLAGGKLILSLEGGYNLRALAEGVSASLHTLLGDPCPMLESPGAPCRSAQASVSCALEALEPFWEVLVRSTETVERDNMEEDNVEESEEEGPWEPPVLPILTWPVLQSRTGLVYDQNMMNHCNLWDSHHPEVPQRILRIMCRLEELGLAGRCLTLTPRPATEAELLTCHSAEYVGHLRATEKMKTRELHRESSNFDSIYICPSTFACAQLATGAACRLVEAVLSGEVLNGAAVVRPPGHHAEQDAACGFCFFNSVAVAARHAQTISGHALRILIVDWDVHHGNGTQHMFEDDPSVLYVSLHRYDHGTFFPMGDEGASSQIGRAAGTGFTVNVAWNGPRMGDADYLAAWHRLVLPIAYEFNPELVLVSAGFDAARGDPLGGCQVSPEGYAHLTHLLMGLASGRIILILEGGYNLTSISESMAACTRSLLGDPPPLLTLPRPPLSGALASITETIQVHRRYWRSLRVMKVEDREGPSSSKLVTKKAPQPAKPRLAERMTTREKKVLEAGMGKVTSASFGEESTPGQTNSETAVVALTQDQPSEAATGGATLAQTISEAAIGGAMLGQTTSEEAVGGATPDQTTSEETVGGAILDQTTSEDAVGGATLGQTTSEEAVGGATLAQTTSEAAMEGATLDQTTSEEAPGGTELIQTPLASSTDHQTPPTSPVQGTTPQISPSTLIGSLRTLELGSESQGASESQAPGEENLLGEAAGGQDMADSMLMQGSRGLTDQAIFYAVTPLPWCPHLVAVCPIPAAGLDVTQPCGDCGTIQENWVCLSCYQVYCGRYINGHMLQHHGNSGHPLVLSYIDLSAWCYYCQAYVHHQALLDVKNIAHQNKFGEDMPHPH
Summary of the method: as §1

T1 sequence (Q13547 whole entry): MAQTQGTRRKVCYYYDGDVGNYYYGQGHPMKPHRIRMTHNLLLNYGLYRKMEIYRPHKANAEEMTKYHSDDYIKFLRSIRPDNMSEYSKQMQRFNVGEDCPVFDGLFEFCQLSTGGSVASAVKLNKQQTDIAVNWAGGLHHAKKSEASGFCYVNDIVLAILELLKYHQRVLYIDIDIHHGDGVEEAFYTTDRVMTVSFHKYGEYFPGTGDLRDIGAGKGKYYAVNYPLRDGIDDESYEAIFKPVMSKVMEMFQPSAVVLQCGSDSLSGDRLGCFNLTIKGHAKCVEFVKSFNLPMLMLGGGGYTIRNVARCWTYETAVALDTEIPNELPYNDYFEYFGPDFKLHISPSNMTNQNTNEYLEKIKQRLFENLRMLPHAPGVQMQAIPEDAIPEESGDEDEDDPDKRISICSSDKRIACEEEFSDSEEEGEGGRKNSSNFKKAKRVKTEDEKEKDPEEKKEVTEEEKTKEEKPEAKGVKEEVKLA

For `O=C(NC[C@@H]1COCCN1C(=O)C1(c2ccccc2)CC1)c1ccc(-c2noc(C(F)(F)F)n2)cc1` [Example 128, N-(((3R)-4-((1-phenylcyclopropyl)carbonyl)morpholin-3-yl)methyl)-4-(5-(trifluoromethyl)-1,2,4-oxadiazol-3-yl)benzamide], the inhibition at 1 µM [1] was 6% and the inhibition at 1 µM [2] was 92%.

`O=C(NCC1COCCN1C(=O)C(F)(F)c1ccccc1)c1ccc(-c2noc(C(F)(F)F)n2)s1` (stereo not drawn) [Example 246, N-((4-(difluoro(phenyl)acetyl)morpholin-3-yl)methyl)-5-(5-(trifluoromethyl)-1,2,4-oxadiazol-3-yl)thiophene-2-carboxamide] showed an inhibition at 1 µM [1] of 52% and an inhibition at 1 µM [2] of 99%.

In the case of `Cc1nocc1C(=O)N1CCOCC1CNC(=O)c1ccc(-c2noc(C(F)(F)F)n2)cc1` (stereo in doubt) [Example 94, N-(((3S)-4-((3-methyl-1,2-oxazol-4-yl)carbonyl)morpholin-3-yl)methyl)-4-(5-(trifluoromethyl)-1,2,4-oxadiazol-3-yl)benzamide], the inhibition at 1 µM [1] is reported as 30% and the inhibition at 1 µM [2] is reported as 99%.

`O=C(NC[C@H]1COCCN1C(=O)N1CCC[C@@H]1CO)c1ccc(-c2noc(C(F)(F)F)n2)cc1` [Example 108, N-(((3S)-4-(((2R)-2-(hydroxymethyl)pyrrolidin-1-yl)carbonyl)morpholin-3-yl)methyl)-4-(5-(trifluoromethyl)-1,2,4-oxadiazol-3-yl)benzamide] showed an inhibition at 1 µM [1] of 2% and an inhibition at 1 µM [2] of 100%.

Compound `Cc1ncsc1C(=O)N1CCOC[C@@H]1CNC(=O)c1ccc(-c2noc(C(F)(F)F)n2)cc1` [Example 69, N-(((3S)-4-((4-methyl-1,3-thiazol-5-yl)carbonyl)morpholin-3-yl)methyl)-4-(5-(trifluoromethyl)-1,2,4-oxadiazol-3-yl)benzamide] has an inhibition at 1 µM [1] of 16% and an inhibition at 1 µM [2] of 100%.

Work on `CN(C(=O)C[C@H]1COCCN1C(=O)c1ccccc1)c1ccc(-c2noc(C(F)(F)F)n2)cc1` [Example 161, 2-((3S)-4-benzoylmorpholin-3-yl)-N-methyl-N-(4-(5-(trifluoromethyl)-1,2,4-oxadiazol-3-yl)phenyl)acetamide] yielded an inhibition at 1 µM [1] of 6% and an inhibition at 1 µM [2] of 48%.

Work on `O=C(NCC1COCCN1C(=O)C1CC1)c1ccc(-c2noc(C(F)(F)F)n2)cc1` (stereo not drawn) [Example 24, N-((4-(cyclopropylcarbonyl)morpholin-3-yl)methyl)-4-(5-(trifluoromethyl)-1,2,4-oxadiazol-3-yl)benzamide] yielded an inhibition at 1 µM [1] of 8% and an inhibition at 1 µM [2] of 93%.

In the case of `Cc1nonc1C(=O)N1CCOCC1CNC(=O)c1ccc(-c2noc(C(F)(F)F)n2)s1` (stereo not drawn) [Example 236, N-((4-((4-methyl-1,2,5-oxadiazol-3-yl)carbonyl)morpholin-3-yl)methyl)-5-(5-(trifluoromethyl)-1,2,4-oxadiazol-3-yl)thiophene-2-carboxamide], the inhibition at 1 µM [1] is reported as 43% and the inhibition at 1 µM [2] is reported as 98%.

`O=C(NC[C@@H]1COCCN1C(=O)c1cc(Cl)cc(Cl)c1)c1ccc(-c2noc(C(F)(F)F)n2)cn1` [Example 209, N-(((3R)-4-(3,5-dichlorobenzoyl)morpholin-3-yl)methyl)-5-(5-(trifluoromethyl)-1,2,4-oxadiazol-3-yl)pyridine-2-carboxamide] showed an inhibition at 1 µM [1] of 21% and an inhibition at 1 µM [2] of 95%.

`O=C(NCC1COCCN1C(=O)c1ccc2nccn2c1)c1ccc(-c2noc(C(F)(F)F)n2)cc1` (stereo not drawn) [Example 20, N-((4-(imidazo[1,2-a]pyridin-6-ylcarbonyl)morpholin-3-yl)methyl)-4-(5-(trifluoromethyl)-1,2,4-oxadiazol-3-yl)benzamide] showed an inhibition at 1 µM [1] of 20% and an inhibition at 1 µM [2] of 99%.

Work on `Cc1ccc(C(=O)N2CCOC[C@H]2CNC(=O)c2ccc(-c3noc(C(F)(F)F)n3)cc2)s1` [Example 144, N-(((3R)-4-((5-methyl-2-thienyl)carbonyl)morpholin-3-yl)methyl)-4-(5-(trifluoromethyl)-1,2,4-oxadiazol-3-yl)benzamide] yielded an inhibition at 1 µM [1] of 14% and an inhibition at 1 µM [2] of 96%.

For `Cc1nnsc1C(=O)N1CCOC[C@@H]1CNC(=O)c1ccc(-c2noc(C(F)(F)F)n2)cc1` [Example 68, N-(((3S)-4-((4-methyl-1,2,3-thiadiazol-5-yl)carbonyl)morpholin-3-yl)methyl)-4-(5-(trifluoromethyl)-1,2,4-oxadiazol-3-yl)benzamide], the inhibition at 1 µM [1] was 32% and the inhibition at 1 µM [2] was 101%.

Compound `O=C(NCC1COCCN1C(=O)c1ccccc1F)c1ccc(-c2noc(C(F)(F)F)n2)cc1` (stereo not drawn) [Example 3] has an inhibition at 1 µM [1] of 19% and an inhibition at 1 µM [2] of 99%.

In the case of `O=C(NC[C@@H]1COCCN1C(=O)N1CCCCC1)c1ccc(-c2noc(C(F)(F)F)n2)cc1` [Example 158, N-(((3R)-4-(piperidin-1-ylcarbonyl)morpholin-3-yl)methyl)-4-(5-(trifluoromethyl)-1,2,4-oxadiazol-3-yl)benzamide], the inhibition at 1 µM [1] is reported as 12% and the inhibition at 1 µM [2] is reported as 97%.

In the case of `Cc1csc(C(=O)N2CCOC[C@H]2CNC(=O)c2ccc(-c3noc(C(F)(F)F)n3)cc2)c1` [Example 145, N-(((3R)-4-((4-methyl-2-thienyl)carbonyl)morpholin-3-yl)methyl)-4-(5-(trifluoromethyl)-1,2,4-oxadiazol-3-yl)benzamide], the inhibition at 1 µM [1] is reported as 15% and the inhibition at 1 µM [2] is reported as 97%.

`O=C(NC[C@H]1COCCN1C(=O)c1ccnn1CCO)c1ccc(-c2noc(C(F)(F)F)n2)cc1` [Example 296, N-(((3S)-4-((1-(2-hydroxyethyl)-1H-pyrazol-5-yl)carbonyl)morpholin-3-yl)methyl)-4-(5-(trifluoromethyl)-1,2,4-oxadiazol-3-yl)benzamide] showed an inhibition at 1 µM [1] of 32% and an inhibition at 1 µM [2] of 100%.

Work on `O=C(NCC1COCCN1C(=O)c1cc(Cl)cc(Cl)c1)c1ccc(-c2noc(C(F)(F)F)n2)s1` (stereo not drawn) [Example 211, N-((4-(3,5-dichlorobenzoyl)morpholin-3-yl)methyl)-5-(5-(trifluoromethyl)-1,2,4-oxadiazol-3-yl)thiophene-2-carboxamide] yielded an inhibition at 1 µM [1] of 15% and an inhibition at 1 µM [2] of 96%.

With `O=C(NC[C@H]1COCCN1C(=O)c1ccc(OCC(F)(F)F)nc1)c1ccc(-c2noc(C(F)(F)F)n2)cc1` [Example 51, N-(((3S)-4-((6-(2,2,2-trifluoroethoxy)pyridin-3-yl)carbonyl)morpholin-3-yl)methyl)-4-(5-(trifluoromethyl)-1,2,4-oxadiazol-3-yl)benzamide] the inhibition at 1 µM [1] was 15% and the inhibition at 1 µM [2] was 99%.

With `O=C(NCC1COCCN1C(=O)c1ccccc1)c1ccc(-c2noc(C(F)(F)F)n2)cn1` (stereo not drawn) [Example 181, N-((4-benzoylmorpholin-3-yl)methyl)-5-(5-(trifluoromethyl)-1,2,4-oxadiazol-3-yl)pyridine-2-carboxamide] the inhibition at 1 µM [1] was 29% and the inhibition at 1 µM [2] was 97%.

For `O=C(NC[C@H]1COCCN1C(=O)c1cccc(F)c1)c1ccc(-c2noc(C(F)(F)F)n2)cc1` [Example 41, N-(((3S)-4-(3-fluorobenzoyl)morpholin-3-yl)methyl)-4-(5-(trifluoromethyl)-1,2,4-oxadiazol-3-yl)benzamide], the “HDAC1 inhibitory rate (%) (1 μM)” value ([1]; 1 µM) was 65% and the “HDAC6 inhibitory rate (%) (1 μM)” value ([2]; 1 µM) was 98%.

`O=C(NC[C@H]1COCCN1C(=O)N1CCC(CCO)C1)c1ccc(-c2noc(C(F)(F)F)n2)cc1` (stereo partly drawn) [Example 300, N-(((3S)-4-((3-(2-hydroxyethyl)pyrrolidin-1-yl)carbonyl)morpholin-3-yl)methyl)-4-(5-(trifluoromethyl)-1,2,4-oxadiazol-3-yl)benzamide] gave an inhibition at 1 µM [1] of 4% and an inhibition at 1 µM [2] of 90%.
